Source: patent US10975068B2, “6-aminopyridin-3-yl thiazoles as modulators of RORγT” (Janssen Pharmaceutica NV, priority 2016, dated 2021)
pIC50, pKd: −log10 of the molar value. Like-named read-outs stand apart in the source and are kept apart here.

Columns and labels:
full-length human RORγt = full-length human RORγt (Homo sapiens (Human), UniProt P51449); test: RORγt (full-length human) reporter assay, Conditions B or C; format: cell-based; details: for RORγt (FL) Reporter Assay B or C, % inhibition (value marked *): marked *: footnote not given; for inhibition at 1 µM: at 1 μM compound concentration; for inhibition at 1 µM / inhibition at 3 µM: read-out: RORγt (FL) Reporter Assay B or C, % inhibition; for inhibition at 3 µM: at 3 μM compound concentration
Chain of full-length human RORγt (P51449 other isoform, or with tags, fused parts or gaps): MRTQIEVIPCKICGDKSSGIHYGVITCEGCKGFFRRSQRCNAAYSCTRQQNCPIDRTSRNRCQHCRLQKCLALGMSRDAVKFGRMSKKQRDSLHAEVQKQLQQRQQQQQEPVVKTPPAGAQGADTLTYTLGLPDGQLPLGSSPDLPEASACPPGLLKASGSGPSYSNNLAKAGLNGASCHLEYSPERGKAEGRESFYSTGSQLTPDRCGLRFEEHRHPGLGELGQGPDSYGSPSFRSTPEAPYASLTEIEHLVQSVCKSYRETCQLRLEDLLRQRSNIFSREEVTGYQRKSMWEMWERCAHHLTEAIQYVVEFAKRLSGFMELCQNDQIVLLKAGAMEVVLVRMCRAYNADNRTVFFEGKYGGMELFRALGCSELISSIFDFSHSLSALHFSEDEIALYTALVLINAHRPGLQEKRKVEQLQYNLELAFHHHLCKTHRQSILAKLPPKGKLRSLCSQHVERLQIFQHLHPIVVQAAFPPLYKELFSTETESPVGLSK
Outline: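 HEK293T cells transiently co-transfected with GAL4-DBD–full-length human RORγt (nt 142-1635, NM_001001523.1) plus GAL4-firefly and CMV-Renilla luciferase reporters; compounds added 4-6 h post-transfection for 16-20 h in 1.3% FBS, 0.1% DMSO. Firefly signal normalized to DMSO and saturating reference compound, then to Renilla; IC50 from concentration plots.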

[1] = biological target: human RORγt ligand binding domain (RORγt LBD) (Homo sapiens (Human), UniProt P51449); test: RORγt ThermoFluor® assay (thermal shift binding); details: read-out: ThermoFluor® Assay, Kd
Chain of human RORγt ligand binding domain (RORγt LBD) (P51449 other isoform, or with tags, fused parts or gaps): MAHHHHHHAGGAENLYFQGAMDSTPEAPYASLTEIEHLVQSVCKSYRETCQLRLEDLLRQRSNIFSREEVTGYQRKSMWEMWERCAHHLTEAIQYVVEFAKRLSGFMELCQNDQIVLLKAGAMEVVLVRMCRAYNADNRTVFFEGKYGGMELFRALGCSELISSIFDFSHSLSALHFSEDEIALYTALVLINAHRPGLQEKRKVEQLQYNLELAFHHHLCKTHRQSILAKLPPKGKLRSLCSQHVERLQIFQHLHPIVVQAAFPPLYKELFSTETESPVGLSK
Outline: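 His-tagged human RORγt LBD (0.065 mg/mL) with 60 μM 1,8-ANS in 100 mM Hepes pH 7.0, 10 mM NaCl, 2.5 mM GSH, 0.002% Tween-20 was heated at 1 °C/min.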

[2] = Conditions B or C, read-out: RORγt (FL) Reporter Assay B or C, IC50
[3] = read-out: RORγt (FL) Reporter Assay B or C, IC50

| RORγt (FL) Reporter Assay B or C, % inhibition (value marked *) (full-length human RORγt; Conditions B or C) | pIC50 (full-length human RORγt; [2]) | pKd [1] | pIC50 (full-length human RORγt; [3]) | inhibition at 3 µM (full-length human RORγt) | Compound | further results |
| --- | --- | --- | --- | --- | --- | --- |
| 107* % | 8.48 | 9.11 |  |  | C[C@H]1CCCN1C(=O)c1nc(C(=O)NCC(C)(C)O)sc1-c1cnc(NCC2(C(F)(F)F)CCC2)cc1C(F)(F)F [Example 117, (S)—N-(2-Hydroxy-2-methylpropyl)-4-(2-methylpyrrolidine-1-carbonyl)-5-(4-(trifluoromethyl)-6-(((1-(trifluoromethyl)cyclobutyl)methyl)amino)pyridin-3-yl)thiazole-2-carboxamide] |  |
|  |  | 7.74 | 7.21 |  | C[C@H]1CCCN1C(=O)c1nc(C(=O)NCC(C)(C)O)sc1-c1cnc(N[C@H]2CCCC2(F)F)cc1C(F)(F)F (single isomer, unassigned) [Example 279, 5-(6-(((S*)-2,2-Difluorocyclopentyl)amino)-4-(trifluoromethyl)pyridin-3-yl)-N-(2-hydroxy-2-methylpropyl)-4-((S)-2-methylpyrrolidine-1-carbonyl)thiazole-2-carboxamide] | inhibition at 1 µM (full-length human RORγt): 109% |
|  |  | 9.43 | 7.60 | 105% | C[C@H]1CCCN1C(=O)c1nc(C(=O)N[C@H]2CC[C@H](O)C2)sc1-c1cnc(NC(C)(C)C)cc1C(F)(F)F [Example 361, 5-[6-(tert-Butylamino)-4-(trifluoromethyl)-3-pyridyl]-N-[(1S,3S)-3-hydroxycyclopentyl]-4-[(2S)-2-methylpyrrolidine-1-carbonyl]thiazole-2-carboxamide] |  |
| 92* % | 7.31 | 9.15 |  |  | C[C@H]1CC(F)(F)CN1C(=O)c1nc(C(=O)N[C@H]2COC[C@H]2O)sc1-c1cnc(NC2(C)CCC2)cc1C(F)(F)F (relative stereo) [Example 184, 4-((S)-4,4-Difluoro-2-methylpyrrolidine-1-carbonyl)-N-((3S*,4S*)-4-hydroxytetrahydrofuran-3-yl)-5-(6-((1-methylcyclobutyl)amino)-4-(trifluoromethyl)pyridine-3-yl)thiazole-2-carboxamide] |  |
| 103* % | 7.89 | 8.15 |  |  | C[C@H]1CCCN1C(=O)c1nc(C(=O)NC2CS(=O)(=O)C2)sc1-c1cnc(NC2CCCC2)cc1C(F)F [Example 61, (S)-5-(6-(Cyclopentylamino)-4-(difluoromethyl)pyridin-3-yl)-N-(1,1-dioxidothietan-3-yl)-4-(2-methylpyrrolidine-1-carbonyl)thiazole-2-carboxamide] |  |
|  | 7.80 | 8.77 |  |  | C[C@H]1CCCN1C(=O)c1nc(C(=O)NCC(C)(C)O)sc1-c1cnc(N[C@H]2CCCCC2(F)F)cc1C(F)(F)F (relative stereo) [Example 36, 5-(6-(((S*)-2,2-Difluorocyclohexyl)amino)-4-(trifluoromethyl)pyridin-3-yl)-N-(2-hydroxy-2-methylpropyl)-4-((S)-2-methylpyrrolidine-1-carbonyl)thiazole-2-carboxamide] | inhibition at 6 µM (full-length human RORγt; read-out: RORγt (FL) Reporter Assay B or C, % inhibition @ 6 μM, Conditions B or C, @ 6 μM): 116% |
|  |  | 9.15 | 8.18 | 106% | C[C@H]1CCCN1C(=O)c1nc(C(=O)NC2CCC2O)sc1-c1cnc(NC(C)(C)C)cc1C(F)(F)F (stereo partly drawn) [Example 369, 5-(6-(tert-Butylamino)-4-(trifluoromethyl)pyridin-3-yl)-N-(trans-2-hydroxycyclobutyl)-4-((S)-2-methylpyrrolidine-1-carbonyl)thiazole-2-carboxamide] |  |
|  | 7.49 | 7.66 |  |  | C[C@H](Nc1cc(C(F)F)c(-c2sc(C(=O)N[C@@H]3COC[C@@H]3O)nc2C(=O)N2CCC[C@@H]2C)cn1)C(F)(F)F (single isomer, unassigned) [Example 159, 5-(4-(Difluoromethyl)-6-(((S)-1,1,1-trifluoropropan-2-yl)amino)pyridin-3-yl)-N-((3R*,4R*)-4-hydroxytetrahydrofuran-3-yl)-4-((S)-2-methylpyrrolidine-1-carbonyl)thiazole-2-carboxamide] | RORγt (FL) Reporter Assay B or C, % inhibition (value marked ***) (full-length human RORγt; Conditions B or C, marked ***: footnote not given): 93*** % |
| 82* % | 7.49 | 8.59 |  |  | C[C@H](Nc1cc(C(F)F)c(-c2sc(C(=O)N[C@@H](C)C(C)(C)O)nc2C(=O)N2CC(F)(F)C[C@@H]2C)cn1)C1CC1 [Example 193, 5-(6-(((S)-1-Cyclopropylethyl)amino)-4-(difluoromethyl)pyridine-3-yl)-4-((S)-4,4-difluoro-2-methylpyrrolidine-1-carbonyl)-N—((S)-3-hydroxy-3-methylbutan-2-yl)thiazole-2-carboxamide] |  |
|  |  | 9.74 | 7.30 | 103% | CC[C@H](Nc1cc(C(F)F)c(-c2sc(C(=O)N[C@@H]3CCC[C@H]3O)nc2C(=O)N2CC(F)(F)C[C@@H]2C)cn1)C(F)(F)F [Example 425, 4-[(2S)-4,4-Difluoro-2-methyl-pyrrolidine-1-carbonyl]-5-[4-(difluoromethyl)-6-[[(1S)-1-(trifluoromethyl)propyl]amino]-3-pyridyl]-N-[(1R,2R)-2-hydroxycyclopentyl]thiazole-2-carboxamide] |  |
|  |  | 8.66 | 7.57 | 106% | C[C@H](NC(=O)c1nc(C(=O)N2CCC[C@@H]2C)c(-c2cnc(N[C@@H](C3CC3)C(F)(F)F)cc2C(F)F)s1)C(C)(C)O [Example 312, 5-(6-(((S)-1-Cyclopropyl-2,2,2-trifluoroethyl)amino)-4-(difluoromethyl)pyridin-3-yl)-N—((S)-3-hydroxy-3-methylbutan-2-yl)-4-((S)-2-methylpyrrolidine-1-carbonyl)thiazole-2-carboxamide] |  |
| 109* % | 8.02 | 9.82 |  |  | CCC(C)(C)Nc1cc(C(F)F)c(-c2sc(C(=O)NCC(C)(C)O)nc2C(=O)N2CCCC[C@@H]2C)cn1 [Example 95, (S)-5-(4-(Difluoromethyl)-6-(tert-pentylamino)pyridin-3-yl)-N-(2-hydroxy-2-methylpropyl)-4-(2-methylpiperidine-1-carbonyl)thiazole-2-carboxamide] |  |
|  |  | 7.52 | 7.08 | 95% | C[C@H]1CCCN1C(=O)c1nc(C(=O)NCC(C)(C)O)sc1-c1cnc(NCC2CCC2)cc1C(F)F [Example 301, (S)-5-(6-((Cyclobutylmethyl)amino)-4-(difluoromethyl)pyridine-3-yl)-N-(2-hydroxy-2-methylpropyl)-4-(2-methylpyrrolidine-1-carbonyl)thiazole-2-carboxamide] |  |

| Compound | RORγt (FL) Reporter Assay B or C, % inhibition (value marked *) (full-length human RORγt; Conditions B or C) | pIC50 (full-length human RORγt; [2]) | pKd [1] | pIC50 (full-length human RORγt; [3]) | inhibition at 3 µM (full-length human RORγt) | further results |
| --- | --- | --- | --- | --- | --- | --- |
| CCC(C)(C)Nc1cc(C(F)F)c(-c2sc(C(=O)NCC(C)(C)O)nc2C(=O)N2C3CCC2CC3)cn1 [Example 93, 4-((1s,4s)-7-Azabicyclo[2.2.1]heptane-7-carbonyl)-5-(4-(difluoromethyl)-6-(tert-pentylamino)pyridin-3-yl)-N-(2-hydroxy-2-methylpropyl)thiazole-2-carboxamide] | 121* % | 8.00 | 8.96 |  |  |  |
| C[C@H](Nc1cc(C(F)F)c(-c2sc(C(=O)NCC(C)(C)O)nc2C(=O)N2C3CCC2CC3)cn1)C1CC1 [Example 55, 4-((1s,4s)-7-Azabicyclo[2.2.1]heptane-7-carbonyl)-5-(6-(((S)-1-cyclopropylethyl)amino)-4-(difluoromethyl)pyridin-3-yl)-N-(2-hydroxy-2-methylpropyl)thiazole-2-carboxamide] | 92* % | 7.51 | 8.10 |  |  |  |
| CC(C)(C)Nc1cc(C(F)F)c(-c2sc(C(=O)N[C@@H]3CC[C@@H](O)C3)nc2C(=O)N2C3CCC2CC3)cn1 [Example 430, 4-((1s,4s)-7-Azabicyclo[2.2.1]heptane-7-carbonyl)-5-[6-(tert-butylamino)-4-(difluoromethyl)-3-pyridyl]-N-[(1R,3R)-3-hydroxycyclopentyl]thiazole-2-carboxamide] |  |  | 9.22 |  |  | pIC50 (full-length human RORγt; RORγt (FL) Reporter Assay B or C, IC50): 7.89; inhibition at 1 µM (full-length human RORγt): 130% |
| C[C@H](NC(=O)c1nc(C(=O)N2C3CCC2CC3)c(-c2cnc(N[C@@H](C)C(F)(F)F)cc2C(F)F)s1)C(C)(C)O [Example 446, 4-((1s,4s)-7-Azabicyclo[2.2.1]heptane-7-carbonyl)-5-[4-(difluoromethyl)-6-[[(1S)-2,2,2-trifluoro-1-methyl-ethyl]amino]-3-pyridyl]-N-[(1S)-2-hydroxy-1,2-dimethyl-propyl]thiazole-2-carboxamide] |  |  | 7.89 | 6.74 | 108% |  |
| C[C@@H](Nc1cc(C(F)(F)F)c(-c2sc(C(=O)NCC(C)(C)O)nc2C(=O)N2C3CCC2CC3)cn1)C1CCC1 (stereo in doubt) [Example 172, 4-((1s,4s)-7-Azabicyclo[2.2[1]heptane-7-carbonyl)-5-(6-(((R*)-1-cyclobutylethyl)amino)-4-(trifluoromethyl)pyridine-3-yl)-N-(2-hydroxy-2-methylpropyl)thiazole-2-carboxamide] | 102* % | 7.41 | 8.92 |  |  |  |
